Laboratory results reported in ChEMBL document CHEMBL3044918, “Ability of vitamins to induce downy mildew disease resistance and growth promotion in pearl millet” (2007).
Active and inactive are the calls of the source. No cut-off for these calls is given here.

How the values were obtained:
Cenchrus americanus [1] = assay: (§1) Induction of systemic acquired resistance against Sclerospora graminicola in Cenchrus americanus cultivar 7042S assessed as protection against downy mildew disease at 20 mM applied to seeds prior to sowing followed by inoculation on 2 day old seedling measured on day 30 in green house conditions (reference value: 3%); format: functional
Cenchrus americanus [2] = assay: Increase in seed vigor in Cenchrus americanus cultivar 7042S at 20 mM incubated for 6 hr followed by sowing measured at 7-day old seedling stage relative to control; format: functional, organism-based
Cenchrus americanus [3] = assay: Stimulation of seed germination in Cenchrus americanus cultivar 7042S at 20 mM incubated for 6 hr followed by sowing measured at 7-day old seedling stage (reference value: 88%); format: functional
Cenchrus americanus [4] = assay: as §1, with “and to foliar of 7” for “followed by inoculation on 2”, “seedling inoculated on day 2” for “seedling”, “field” for “green house”; format: functional
Cenchrus americanus [5] = assay: Induction of systemic acquired resistance against Sclerospora graminicola in Cenchrus americanus cultivar 7042S assessed as protection against downy mildew disease at 20 mM applied to foliar of 7 day old seedling inoculated on day 2 measured on day 30 in field conditions (reference value: 2%); format: functional
Cenchrus americanus [6] = assay: Effect on growth parameter in disease-susceptible Cenchrus americanus cultivar 7042S assessed as yield at 20 mM applied to seeds prior to sowing (reference value: 1209 +/- 9 kg/ha); format: functional
Cenchrus americanus [7] = assay: Effect on growth parameter in disease-susceptible Cenchrus americanus cultivar 7042S assessed as girth of ear at 20 mM applied to seeds prior to sowing measured after 60 days (reference value: 3.6 +/- 0.9 cm); format: functional
Cenchrus americanus [8] = assay: Effect on growth parameter in disease-susceptible Cenchrus americanus cultivar 7042S assessed as length of ear at 20 mM applied to seeds prior to sowing measured after 60 days (reference value: 9.4 +/- 0.8 cm); format: functional
Cenchrus americanus [9] = assay: Effect on growth parameter in disease-susceptible Cenchrus americanus cultivar 7042S assessed as increase in prodcutive tillers at 20 mM applied to seeds prior to sowing measured after 60 days relative to control; format: functional, organism-based
Cenchrus americanus [10] = assay: Stimulation of flowering in downy mildew disease-susceptible Cenchrus americanus cultivar 7042S assessed as days required for 50% flowering at 20 mM applied to seeds prior to sowing measured after 60 days (reference value: 44 +/- 0.7 days ); format: functional
Cenchrus americanus [11] = assay: Stimulation of growth in downy mildew disease-susceptible Cenchrus americanus cultivar 7042S assessed as plant height at 20 mM applied to seeds prior to sowing measured after 60 days (reference value: 58.5 cm); format: functional
Cenchrus americanus [12] = assay: as §1, with “seedling and challenge-inoculation to the inflorescence primordia at boot leaf stage” for “seedling”, “60” for “30”, “condition relative to control” for “conditions (reference value: 3%)”; format: functional
Cenchrus americanus [13] = assay: as §1, with “seedling and challenge-inoculation to the nodal tiller” for “seedling”, “60” for “30”, “condition relative to control” for “conditions (reference value: 3%)”; format: functional
Cenchrus americanus [14] = assay: as §1, with “at cleoptile stage at” for “on 2”, “6 post” for “old”, “seedling emergence” for “seedling”, “relative to control” for “(reference value: 3%)”; format: functional
Cenchrus americanus [15] = assay: Effect on growth parameter in disease-susceptible Cenchrus americanus cultivar 7042S assessed as weight of 1000 seeds at 20 mM applied to seeds prior to sowing (reference value: 7.4 +/- 1.4 g); format: functional
Cenchrus americanus [16] = assay: as §1, with “field” for “green house”; format: functional
Cenchrus americanus [17] = assay: as §1, with “at cleoptile stage at” for “on 2”, “5 post” for “old”, “seedling emergence” for “seedling”, “relative to control” for “(reference value: 3%)”; format: functional
Cenchrus americanus [18] = assay: as §1, with “at cleoptile stage at” for “on 2”, “4 post” for “old”, “seedling emergence” for “seedling”, “relative to control” for “(reference value: 3%)”; format: functional
Cenchrus americanus [19] = assay: as §1, with “at cleoptile stage at” for “on 2”, “3 post” for “old”, “seedling emergence” for “seedling”, “relative to control” for “(reference value: 3%)”; format: functional
Cenchrus americanus [20] = assay: (§2) Induction of systemic acquired resistance against Sclerospora graminicola in Cenchrus americanus cultivar 7042S assessed as protection against downy mildew disease at 20 mM applied to seeds prior to sowing followed by inoculation at cleoptile stage at day 2 post seedling emergence measured on day 30 in green house conditions relative to control; format: functional
Cenchrus americanus [21] = assay: as §2, with “day 1” for “day 2”; format: functional
Cenchrus americanus [22] = assay: Effect on seed vigor in Cenchrus americanus cultivar 7042S assessed as vigor index at 20 mM incubated for 6 hr followed by sowing measured at 7-day old seedling stage (reference value: 990); format: functional
Cenchrus americanus [23] = assay: (§3) Induction of systemic acquired resistance against Sclerospora graminicola in Cenchrus americanus cultivar 7042S assessed as protection against downy mildew disease at 6 g/kg applied to foliar of 7 day old seedling inoculated on day 2 measured on day 30 in field conditions (reference value: 2%); format: functional
Cenchrus americanus [24] = assay: as §3, with “to seeds prior to sowing and to” for “to”, “3%)” for “2%)”; format: functional
Cenchrus americanus [25] = assay: as §1, with “6 g/kg” for “20 mM”, “field” for “green house”; format: functional
Cenchrus americanus [26] = assay: as §1, with “6 g/kg” for “20 mM”, “condition(reference” for “conditions (reference”; format: functional

Row | SMILES | Activity (Cenchrus americanus [1]) [%] | Activity (Cenchrus americanus [2]) | Activity (Cenchrus americanus [3]) [%] | Activity (Cenchrus americanus [4]) [%] | Activity (Cenchrus americanus [5]) [%] | Activity (Cenchrus americanus [6]) [kg/ha] | Activity (Cenchrus americanus [7]) [cm] | Activity (Cenchrus americanus [8]) [cm] | Activity (Cenchrus americanus [9]) | Time (Cenchrus americanus [10]) [days] | Activity (Cenchrus americanus [11]) [cm] | Activity (Cenchrus americanus [12]) [%] | Activity (Cenchrus americanus [13]) [%] | Activity (Cenchrus americanus [14]) [%] | Activity (Cenchrus americanus [15]) [g] | Activity (Cenchrus americanus [16]) [%] | Activity (Cenchrus americanus [17]) [%] | Activity (Cenchrus americanus [18]) [%] | Activity (Cenchrus americanus [19]) [%] | Activity (Cenchrus americanus [20]) [%] | further results
1 | O=C(O)CCCC[C@@H]1SC[C@@H]2NC(=O)N[C@@H]21 [BIOTIN] | 51 | Active | 91 |  |  |  |  |  |  |  |  |  |  |  |  |  |  |  |  |  | 
2 | Nc1nc(=O)c2nc(CNc3ccc(C(=O)N[C@@H](CCC(=O)O)C(=O)O)cc3)cnc2[nH]1 [FOLIC ACID] | 42 | Active | 90 |  |  |  |  |  |  |  |  |  |  |  |  |  |  |  |  |  | 
3 | CC1(S(=O)(=O)[O-])CC(=O)c2ccccc2C1=O.[Na+] (stereo not given) [MENADIONE SODIUM BISULPHITE] | 73 |  | 93 | 72 | 66 | 1328 | 4.1 | 12 | Active | 40 | 68 | 79 | 77 | 74 | 11.74 | 68 | 74 | 73 | 65 | 51 | Activity (Cenchrus americanus [21]): 46%; Vigour_index (Cenchrus americanus [22]): 1312
4 | COCC(=O)N(c1c(C)cccc1C)C(C)C(=O)OC (stereo not given) [METALAXYL] |  |  |  |  |  |  |  |  |  |  |  |  |  |  |  |  |  |  |  |  | Activity (Cenchrus americanus [23]): 91%; Activity (Cenchrus americanus [24]): 92%; Activity (Cenchrus americanus [25]): 92%; Activity (Cenchrus americanus [26]): 92%
5 | O=C(O)c1cccnc1 [NIACIN] | 63 |  | 92 | 65 | 60 | 1306 | 4 | 11.8 | Active | 42 | 66 | 71 | 69 | 63 | 10.97 | 63 | 63 | 63 | 56 | 51 | Activity (Cenchrus americanus [21]): 45%; Vigour_index (Cenchrus americanus [22]): 1217
6 | Cc1ncc(CO)c(CO)c1O [PYRIDOXINE] | 44 | Active | 91 |  |  |  |  |  |  |  |  |  |  |  |  |  |  |  |  |  | 
7 | Cc1cc2nc3c(=O)[nH]c(=O)nc-3n(C[C@H](O)[C@H](O)[C@H](O)CO)c2cc1C [RIBOFLAVIN] | 62 |  | 92 | 67 | 61 | 1281 | 3.9 | 11.4 | Active | 43 | 62 | 69 | 64 | 63 | 9.5 | 61 | 63 | 63 | 55 | 50 | Activity (Cenchrus americanus [21]): 43%
